Earlier results in patent US20080044815A1, “Genetic Screen for Interaction Interface Mapping” (priority 2003, published 2008).

Columns and labels:
[1] = test system: nerve growth factor (NGF)-deprived neurons; conditions: Harris et al. 2002
embryonic neurons = conditions: Borasio et al. 1998
neurons = conditions: Saporito et al. 1999

CCSCc1ccc2c(c1)c1c3c(c4c5cc(CSCC)ccc5n5c4c1n2[C@H]1C[C@](O)(C(=O)OC)[C@]5(C)O1)CNC3=O [CEP-1347]
metabolism and growth of NGF-deprived neurons [1]: preserve the metabolism and growth
survival of embryonic neurons (embryonic neurons): support the survival of embryonic neurons
loss of neurons in vivo (neurons): attenuate the loss of neurons in vivo
